For assay [1], the target named is AHAS P197S (Arabidopsis thaliana, UniProt P17597, E575Q/P197S). The format is biochemical. The method, then: (§1) Bacteria are grown at 37° C. in LB-medium containing 100 mg/l carbenicillin and 25 mg/l canamycin, induced with 1 mM isopropyl-β-D-thiogalactopyranoside at an OD600 of 0.6, cultivated for 16 hours at 18° C. and harvested by, e.g., centrifugation. Bacterial pellets are resuspended in 100 mM sodium phosphate buffer pH 7.0 containing 0.1 mM thiamine-pyrophosphate, 1 mM MgCl2, and 1 μM FAD at a concentration of 1 gram wet weight per 25 ml of buffer and disrupted by, e.g., sonification. The crude protein extract obtained after centrifugation is used for ALS activity measurements.
Sequence of AHAS P197S (P17597 56-670 P197S/E575Q): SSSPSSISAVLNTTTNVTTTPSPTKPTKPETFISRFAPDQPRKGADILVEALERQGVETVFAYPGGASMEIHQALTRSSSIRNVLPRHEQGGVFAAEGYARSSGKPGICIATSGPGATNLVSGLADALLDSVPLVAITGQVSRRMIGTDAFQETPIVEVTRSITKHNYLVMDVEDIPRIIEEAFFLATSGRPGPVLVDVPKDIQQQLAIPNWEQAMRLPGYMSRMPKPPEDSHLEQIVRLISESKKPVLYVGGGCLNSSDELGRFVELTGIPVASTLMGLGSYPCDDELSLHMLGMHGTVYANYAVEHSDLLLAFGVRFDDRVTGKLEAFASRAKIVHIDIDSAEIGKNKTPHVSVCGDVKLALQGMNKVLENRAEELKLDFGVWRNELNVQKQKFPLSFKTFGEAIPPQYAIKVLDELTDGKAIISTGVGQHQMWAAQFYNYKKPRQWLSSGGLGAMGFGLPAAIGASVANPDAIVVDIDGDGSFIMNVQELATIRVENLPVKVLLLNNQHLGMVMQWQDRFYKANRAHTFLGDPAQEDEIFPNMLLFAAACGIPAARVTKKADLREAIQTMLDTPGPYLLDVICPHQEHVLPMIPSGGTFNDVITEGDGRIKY
(§2) ALS protein can be extracted from leaves or tissue cultures, such as B. napus or B. juncea leaves, or B. napus or B. juncea tissue cultures as described by Ray (Plant Physiol, 1984, 75:827-831). An ALS assays can be carried out in 96-well microtiter plates using a modification of the procedure described by Ray (1984): The reaction mixture contains 20 mM potassium phosphate buffer pH 7.0, 20 mM sodium pyruvate, 0.45 mM thiamine-pyrophosphate, 0.45 mM MgCl2, 9 μM FAD. ALS enzyme and various concentrations of ALS inhibitors can be mixed in a final volume of 90 μl Assays can be initiated by adding enzyme and the assays can be terminated after 75 min incubation at 30° C. by the addition of 40 μl 0.5 M H2SO4.

Assay [2] concerns the target AHAS W574L (Arabidopsis thaliana, UniProt P17597, E575Q/W574L). The format is biochemical. The protocol:
as §1, §2

The target of assay [3] is AHAS D376E (Arabidopsis thaliana, UniProt P17597, D376E/E575Q). The assay can be described thus: biochemical. Conditions: for Resistance Factor: AHAS D376E. The protocol:
as §1, §2

Assay [4] has as its target AHAS D376E-W574L (Arabidopsis thaliana, UniProt P17597, D376E/E575Q/W574L). As to the kind of experiment: biochemical. Conditions: for Resistance Factor: AHAS D376E-W574L. The protocol: as §1, §2
Assay [5] addresses AHAS P197S-D376E (Arabidopsis thaliana, UniProt P17597, D376E/E575Q/P197S). The assay can be described thus: biochemical. Conditions: for Resistance Factor: AHAS P197S-D376E. The method, then: as §1, §2
Assay [6] deals with AHAS P197S-D376E-W574L (Arabidopsis thaliana, UniProt P17597, D376E/E575Q/P197S/W574L). The assay can be described thus: biochemical. Conditions: for Resistance Factor: AHAS P197S-D376E-W574L. The protocol:
as §1, §2

The target in assay [7] is AHAS P197S-W574L (Arabidopsis thaliana, UniProt P17597, E575Q/P197S/W574L). As to the kind of experiment: biochemical. Conditions: for Resistance Factor: AHAS P197S-W574L. The method, then:
as §1, §2

In assay [8] the test system is wild-type (WT) oilseed rape. The assay can be described thus: Field herbicide tolerance, visible phytotoxicity. The format is in vivo, Brassica napus. Conditions: gai/ha: imazamox 40, bispyribac-sodium 50, propoxycarbazone-sodium 70, mesosulfuron-methyl 60, pyroxsulam 12.5 + cloquintocet-mexyl 37.5, each + rapeseed oil methylated 366.5.
Assay [9] relates to oilseed rape homozygous for HETO133 and HETO134 (133-134). The assay can be described thus: Field herbicide tolerance, visible phytotoxicity (ALS I W574L, ALS III W574L). The format is in vivo, Brassica napus. The note with it: gai/ha: imazamox 40, bispyribac-sodium 50, propoxycarbazone-sodium 70, mesosulfuron-methyl 60, pyroxsulam 12.5 + cloquintocet-mexyl 37.5, each + rapeseed oil methylated 366.5. The text has this: (§3) Seeds of spring oilseed rape homozygous for HETO139 and HETO134 were sown in a field according to typical practical agricultural methods together with seeds homozygous for HETO134 and HETO133 (comprising a W574L mutation on ALS III, which were obtained in the same way as HETO134), and with seeds homozygous for HETO134 and HETO132 (comprising a P197S and a W574L mutation on ALS III, which were obtained in essentially the same way as HETO139). Several ALS inhibitor herbicides were applied to the oilseed rape plants by using specific spray equipment for small plot applications.

Assay [10] relates to oilseed rape homozygous for HETO132 and HETO134 (132-134). The assay can be described thus: Field herbicide tolerance, visible phytotoxicity (ALS I W574L, ALS III P197S-W574L). Conditions: gai/ha: imazamox 40, bispyribac-sodium 50, propoxycarbazone-sodium 70, mesosulfuron-methyl 60, pyroxsulam 12.5 + cloquintocet-mexyl 37.5, each + rapeseed oil methylated 366.5. The format is in vivo, Brassica napus.
Text: as §3

Assay [11] has as its system oilseed rape homozygous for HETO139 and HETO134 (139-134). The assay can be described thus: Field herbicide tolerance, visible phytotoxicity (ALS I W574L, ALS III P197S-D376E). The format is in vivo, Brassica napus. Conditions: gai/ha: imazamox 40, bispyribac-sodium 50, propoxycarbazone-sodium 70, mesosulfuron-methyl 60, pyroxsulam 12.5 + cloquintocet-mexyl 37.5, each + rapeseed oil methylated 366.5.
Text: as §3

pIC50: −log10 of the molar value.

Sequence of AHAS D376E-W574L (P17597 56-670 D376E/W574L/E575Q): as the sequence (P17597 56-670 P197S/E575Q) above, with S142P, D321E, W519L counted along it
Sequence of AHAS W574L (P17597 56-670 W574L/E575Q): as the sequence (P17597 56-670 P197S/E575Q) above, with S142P, W519L counted along it
Sequence of AHAS P197S-D376E (P17597 56-670 P197S/D376E/E575Q): as the sequence (P17597 56-670 P197S/E575Q) above, with D321E counted along it
Sequence of AHAS P197S-W574L (P17597 56-670 P197S/W574L/E575Q): as the sequence (P17597 56-670 P197S/E575Q) above, with W519L counted along it
Sequence of AHAS D376E (P17597 56-670 D376E/E575Q): as the sequence (P17597 56-670 P197S/E575Q) above, with S142P, D321E counted along it
Sequence of AHAS P197S-D376E-W574L (P17597 56-670 P197S/D376E/W574L/E575Q): as the sequence (P17597 56-670 P197S/E575Q) above, with D321E, W519L counted along it

As usually defined, the pIC50 is −log10 of the IC50, conventionally taken in molar units. Read a low pIC50 as a high IC50. For the molecule `COc1cc(OC)nc(NC(=O)NS(=O)(=O)N(C)S(C)(=O)=O)n1` [Amidosulfuron, amidosulfuron], the “Resistance Factor” value in [1], in assay [2], in assay [3], in [4], in assay [5] and in assay [6] was over 488 in each case. Further, the “Resistance Factor” value in [7] is over 488. The negative-log IC50 (pIC50) in assay [3], in [4], in [5], in [6] and in assay [7] was under 4.00 each time.

With `COc1cc(OC)nc(NC(=O)NS(=O)(=O)c2ncccc2C(F)(F)F)n1` [Flazasulfuron, flazasulfuron], the “Resistance Factor” value in assay [1] was 120; in assay [2], 3802; in assay [3], 759; in assay [4], over 120226; in assay [5], over 120226; in [6], over 120226. Further, the “Resistance Factor” value in assay [7] is given as over 120226. Also, the pIC50 in [3] was 6.20; in assay [4], under 4.00; in assay [5] it was under 4.00; in assay [6] it was under 4.00; in assay [7], under 4.00.

Turning to `COC(=O)c1ccc(C(F)(F)F)nc1S(=O)(=O)NC(=O)Nc1nc(OC)cc(OC)n1` [Flupyrsulfuron-methyl], the “Resistance Factor” value in [3] was 2399; in assay [4], over 47863; in assay [5], over 47863; in [6], over 47863; in [7] it was over 47863.

For `COC(=O)c1ccc(I)cc1S(=O)(=O)[N-]C(=O)Nc1nc(C)nc(OC)n1.[Na+]` [Iodosulfuron-methy-sodium, iodosulfuron-methyl-sodium], the “Resistance Factor” value in assay [1] is recorded as 139; in [2] it was 555; in assay [3], 3503; in assay [4] it was over 35030; in assay [5] it was over 35030; in assay [6] it was over 35030. Moreover, the “Resistance Factor” value in assay [7] was over 35030.

`COC(=O)c1ccc(CNS(C)(=O)=O)cc1S(=O)(=O)NC(=O)Nc1nc(OC)cc(OC)n1` [Mesosulfuron-methyl, mesosulfuron-methyl]: the “Resistance Factor” value in assay [1] is 65; in [2], 25770; in [3], 12915; in assay [4], over 64730; in assay [6] it was over 64730; in assay [7], over 64730. Also, the Percentage phytotoxicity in assay [8] (9 DAA) stood at 76.7%; in [8] (16 DAA) it was 98%; in assay [8] (24 DAA), 96%; in assay [9] (9 DAA), 11.7%; in assay [9] (16 DAA), 13.3%; in assay [9] (24 DAA), 3.3%. Moreover, the Percentage phytotoxicity was determined as 11.7% in [10] (9 DAA); 11.7% in [10] (16 DAA); 20.3% in [10] (24 DAA); 9.3% in assay [11] (9 DAA); 13.3% in assay [11] (16 DAA); 5% in assay [11] (24 DAA).

With `COc1cc(OC)n2nc(S(=O)(=O)Nc3c(Cl)ccc(C)c3Cl)nc2n1` [Metosulam, metosulam], the “Resistance Factor” value in assay [1] is 457; in [2] it was 5754; in assay [3], 575; in [4] it was over 28840; in assay [5] it was over 28840; in assay [6], over 28840. Also, the “Resistance Factor” value in assay [7] is recorded as over 28840. Besides, the negative-log IC50 (pIC50) in assay [3] was 5.70; in assay [4] it was under 4.00; in [5], under 4.00; in assay [6], under 4.00; in assay [7], under 4.00.

`COC(=O)c1ccccc1S(=O)(=O)NC(=O)Nc1nc(C)nc(OC)n1` [Metsulfuron-methyl, metsulfuron-methyl]: the “Resistance Factor” value in [1] was 38; in assay [2] it was 755; in assay [3], 239; in assay [4], over 7547; in assay [5] it was over 7547; in assay [6], over 7547. Also, in assay [7], the “Resistance Factor” value is reported as over 7547.

For the molecule `CCCOc1nn(C(=O)[N-]S(=O)(=O)c2ccccc2C(=O)OC)c(=O)n1C.[Na+]` [PROPOXYCARBAZONE-SODIUM, propoxycarbazone-sodium], the Percentage phytotoxicity is 76.7% in assay [8] (9 DAA); 97% in [8] (16 DAA); 97.7% in assay [8] (24 DAA); 53.3% in assay [9] (9 DAA); 82.7% in [9] (16 DAA); 76.7% in assay [9] (24 DAA). For the same molecule, the Percentage phytotoxicity in assay [10] (9 DAA) was 40%; in assay [10] (16 DAA) it was 36.7%; in [10] (24 DAA) it was 11.7%; in assay [11] (9 DAA), 15%; in [11] (16 DAA) it was 20%; in [11] (24 DAA), 1.7%.

Take `CCCOc1nn(C(=O)[N-]S(=O)(=O)c2ccccc2C(=O)OC)c(=O)n1C.[Na+]` [Propoxycarbazone]: the “Resistance Factor” value is given as 147 in [1]; 293 in assay [2]; 1468 in [3]; over 4641 in [4]; over 4641 in assay [5]; over 4641 in [6]. In addition, the “Resistance Factor” value in [7] is reported as over 4641.

In the case of `COC(=O)c1csc(C)c1S(=O)(=O)NC(=O)n1nc(OC)n(C)c1=O` [Thiencarbazone-methyl, thiencarbazone-methyl], the “Resistance Factor” value in assay [1] was 1173; in [2], 1173; in assay [3], 371; in [4] it was over 7399; in [5], over 7399; in assay [6], over 7399. Also, the “Resistance Factor” value in [7] is on record as over 7399.

With `COC(=O)c1sccc1S(=O)(=O)NC(=O)Nc1nc(C)nc(OC)n1` [Thifensulfuron-Methyl, thifensulfuron-methyl], the “Resistance Factor” value was 200 in assay [1]; 1585 in assay [2]; 631 in assay [3]; over 2511 in assay [4]; over 2511 in assay [5]; over 2511 in assay [6]. Also, in assay [7], the “Resistance Factor” value is reported as over 2511. Moreover, the negative-log IC50 (pIC50) is 4.60 in assay [3]; under 4.00 in [4]; under 4.00 in assay [5]; under 4.00 in assay [6]; under 4.00 in assay [7].
